Reference: patent US20220000818A1, “COMPOSITIONS FOR USE IN PREVENTING ACNE” (Nogra Pharma Limited, priority 2019, published 2022)

Columns and labels:
Type in all cases: cell-based, human
[1] = system: SZ95 sebocytes; test: LC-MS analysis of 5-HETE and 15-HETE in SZ95 cell media; details: SZ95-SF and SZ95-S sebocytes, insulin and NAC-GED0507
Description: (§1) Immortalized human SZ95 sebocytes (Zouboulis et al., 1999), showing morphologic, phenotypic, and functional characteristics of normal human sebocytes, were cultured in 5% CO2 at 37° C. in Sebomed basal medium, 1% L-glutamine, 1% penicillin/streptomycin, 5 ng/mL recombinant human epidermal growth factor, and 1 mM CaCl2, with or without 10% FBS supplement. All experiments were performed at least in triplicate.
Levels of the polyunsaturated fatty acids 5-hydroxyeicosatetraenoic acid (5-HETE) and 15-hydroxyeicosatetraenoic acid (15-HETE) in cell media were measured by HPLC\MS\MS. Chromatographic separation was carried out using an Agilent Technologies 1200 HPLC Liquid Chromatography System (Palo Alto, Calif., USA) with a Symmetry C18 column ([…], 100 mm×2.1 mm; Waters, Milford, Mass., USA) as previously reported (Furugen A et al., (2015) “Simultaneous quantification of leukotrienes and hydroxyeicosatrienoic acids in cell culture medium using liquid chromatography/tandem mass spectrometry” Biomed Chromatogr 29:1084-1093). […] For each compound to be quantified, an internal standard was selected and a linear curve was generated where the ratio of analyte standard peak area to internal standard peak area was plotted against the amount of analyte standard. The results were calculated as nM/106 cells and then reported as % variation vs control values. […]

[2] = system: PPARγ and EMA protein in SZ95-SF cells; test: Western blot of PPARγ and EMA (sebocyte differentiation) in SZ95-SF cells; details: 24 hours
Description: as §1
(§2) For protein extraction, cells were lysed in RIPA buffer (50 mM Tris-HCl pH 7.4, 1% Nonidet P40, 0.25% deoxycholate, 150 mM NaCl, 1 mM EDTA, 1 mM PMSF, 1 mM Na3VO4, 5 mM NaF), supplemented with a protease inhibitor cocktail (Roche, Mannheim, Germany), for 30 minutes at 4° C., then sonicated. Total cell lysates were clarified by centrifugation at 12,000 rpm for 10 minutes at 4° C. and then stored at −80° C. until analysis.
(§3) Protein levels were measured by spectrophotometry, and protein (50 μg) was loaded and resolved using an acrylamide SDS-PAGE gel, and finally transferred onto a nitrocellulose membrane (Amersham Biosciences, Milan, Italy). Protein transfer efficiency was evaluated by Ponceau S staining (Sigma-Aldrich). […] Protein levels were quantified by measuring optical density of specific bands using a UVI-TEC System (Eppendorf, Hamburg, Germany). […]

[3] = system: SZ95 sebocytes; test: GC-MS analysis of fatty acid production (lipogenesis) in SZ95 sebocytes; details: insulin and NAC-GED0507, 48 hours or 72 hours
Description: as §1
Lipids were extracted from SZ95 sebocytes using a modified version of the protocol described in Bligh E G and Dyer W J, J Biochem Physiol, 1959. Lipids were extracted with chloroform: methanol (2:1) solution (2×1 mL) after the addition of butylhydroxytoluene to prevent oxidation of oxygen sensitive compounds. 5 μg of methylated tricosanoic acid was added as internal standard to control the analytical performance and to calculate the relative abundance of the fatty acids detected. Organic layers were collected and evaporated under nitrogen. Dried lipid extract was dissolved in 100 μL acetone/methanol/isopropanol (40:40:20) solution and 20 μL were used for the analysis of bound fatty acids (FA).
Bound fatty acids (FA) were analyzed as FA methyl esters (FAME) obtained after derivatization. For simultaneous saponification and methylation of bound FA, 250 μL KOH solution (0.5 M) in anhydrous methanol was added to the dried extract and incubated at 37° C. for 20 minutes with constant shaking. 0.5 mL HCl (0.25 M) was added to neutralize the alkaline reaction mixture. After vortexing, 0.25 mL K2SO4 (6.7%) and 1 mL hexane:isopropanol (3:2 v/v) solution containing 0.0025% BHT were added and vortexed. After centrifugation, the lipid enriched upper phase was transferred to an Eppendorf tube and evaporated under nitrogen. The dried FAME extract was dissolved in 50 μL n-hexane and analyzed by GC-MS to establish FA profiles in the lipid extracts (Thermo-Finnigan, Waltham, Mass., USA). Chromatographic separation was carried out on a HP-FFAP capillary column (Agilent Technologies, Santa Clara, Calif., USA; crosslinked FFAP, length 50 m, film thickness 0.52 μm). Helium was used as the carrier gas. The initial GC oven temperature was 40° C. and was linearly ramped up to 240° C. at 8° C./min. The total run time was 60 min. The injector and the GC-MS transfer lines were kept at 230° C. and 250° C., respectively. Total ion chromatograms (TIC) were acquired, and areas of single peaks, corresponding to the FAME, were integrated with the qualitative analysis software. Identity of the detected FAME was verified by comparison with authentic standards and matched with library spectral data.
SZ95-SF and SZ95-S sebocytes were also cultured for 48 hours or 72 hours in the presence of insulin and NAC-GED0507.

[4] = system: lipoxygenase (LOX); test: Lipoxygenase activity assay in SZ95 sebocyte lysates; details: SZ95-S and SZ95-SF cells, 0.1 μM insulin and NAC-GED0507
Description: Immortalized human SZ95 sebocytes (Zouboulis et al., 1999), showing morphologic, phenotypic, and functional characteristics of normal human sebocytes, were cultured in 5% CO2 at 37° C. in Sebomed basal medium, 1% L-glutamine, 1% penicillin/streptomycin, 5 ng/mL recombinant human epidermal growth factor, and 1 mM CaCl2, with or without 10% FBS supplement. All experiments were performed at least in triplicate. Lipoxygenase (LOX) activity was evaluated spectrophotometrically by monitoring the conversion of the LOX substrate linoleic acid (LA) to the corresponding hydroperoxy fatty acid. SZ95 sebocytes were lysed in 50 mM Tris/HCl buffer (pH 7.4) (Merck; Darmstadt, Germany) by repeated freezing in liquid nitrogen and thawing. Protein content was determined by Bradford assay using bovine serum albumin as the protein standard. Aliquots of supernatants containing 50 μg of protein were added to Tris/HCl buffer containing 200 μM LA in a final volume of 1 mL. All reactions were performed in 1-cm path length quartz cuvettes. The absorbance at 234 nm was recorded at room temperature for 10 minutes using a Lambda 25 UV/Vis spectrophotometer (Perkin-Elmer, UK). SZ95 sebocytes cultured under serum and serum-free conditions were analyzed for LOX expression. SZ95-SF sebocytes expressed slightly higher basal levels of LOX compared to SZ95-S sebocytes (data not shown). […]

[5] = system: SREBP-1, FAS, FADS-2, SCD-1, DGAT1 mRNA in SZ95 sebocytes; test: Real-time RT-PCR of lipidogenic gene mRNA in SZ95 sebocytes
Description: as §1
Total RNA was isolated using the Aurum™ Total RNA Mini kit (Bio-Rad Laboratories Srl; Milan, Italy). Total RNA quantity, purity, and the absence of ribonuclease activity were assessed by OD260/280 absorbance measurements and by agarose gel electrophoresis. Total RNA samples were stored at −80° C. until use. Following DNAse I treatment, cDNA was synthesized using a mix of oligo-dT and random primers and RevertAid™ First Strand cDNA synthesis kit (Thermo Fisher Scientific; Monza, Italy). Quantitative real time RT-PCR was performed in a total volume of 15 μL with SYBR Green PCR Master Mix (Bio-Rad Laboratories Srl) and 200 nM concentration of each primer.
Reactions were carried out in triplicate using an iQ™ 5 iCycler supplied with the iQ™ 5 Real-Time Detection System (Bio-Rad Laboratories; Hercules, Calif., USA). Melt curve analysis was performed to confirm the specificity of the amplified products. Expression of mRNA species was normalized to the expression of GAPDH mRNA by the change in the Δ cycle threshold (ΔCt) method and calculated based on 2^−Δct.
SZ95-S and SZ95-SF sebocytes were cultured for an additional 24 hours in the presence of 0.1 μM insulin and/or 1 mM NAC-GED0507.

[6] = system: SZ95 sebocytes; test: Metabolic activity and cell viability of SZ95 sebocytes; details: SZ95-S or SZ95-SF sebocytes exposed to NAC-GED0507
Description: as §1
SZ95-SF and SZ95-S sebocytes were cultured for an additional 24 hours in the presence of 0.1 μM insulin and/or 1 mM of the PPARγ modulator N-acetyl-(S)-3-(4′-aminophenyl)-2-methoxypropionic acid (“NAC-GED0507”).

[7] = system: pAkt and pS6 (PI3K/Akt pathway) in SZ95 sebocytes; test: Western blot of insulin-induced pAkt and pS6 in SZ95 sebocytes; details: SZ95-SF cells, 0.1 μM insulin and 1 mM NAC-GED0507, 24 hours
Description: as §1, §2, §3

[8] = system: IL-6 release from SZ95 sebocytes; test: IL-6 release ELISA in SZ95 sebocytes; details: all sebocytes (SZ95-SF and SZ95-S), 0.1 μM insulin
Description: as §1
SZ95 culture supernatants were collected and centrifuged to remove cell debris. Aliquots were then stored at −80° C. until use. IL-6 protein level was determined by ELISA (Life Technologies, Invitrogen; Milan, Italy), and normalized for cell number. In stratum corneum specimens, concentration of IL-1α was assessed by ELISA (Life Technologies, Invitrogen, Milan, Italy), and normalized against the total amount of soluble protein. Levels of IL-1α were reported as pg/pg protein. The results represent the average of three independent experiments performed in triplicate.
To determine the effect of insulin exposure on inflammatory cytokine release in sebocytes at different stages of differentiation, IL-6 release was measured by ELISA following exposure of SZ95-SF and SZ95-S sebocytes to 0.1 μM insulin.

[9] = SZ95-SF cells, pre-treatment with NAC-GED0507

- insulin-induced increase in LOX activity [4]: inhibited
SMILES: CO[C@@H](Cc1ccc(NC(C)=O)cc1)C(=O)O [NAC-GED0507, N-acetyl-(S)-3-(4′-aminophenyl)-2-methoxypropionic acid]
- increase in 5-HETE stimulated by insulin [1]: countered the increase
- increase in 15-HETE stimulated by insulin [1]: countered the increase
- EMA protein expression [2]: increase
- PPARγ protein expression [2]: increase
- production of mono-unsaturated fatty acids in response to insulin ([3]; SZ95-SF sebocytes): significantly inhibited
- production of poly-unsaturated fatty acids in response to insulin ([3]; SZ95-SF sebocytes): significantly inhibited
- total fatty acid synthesis stimulated by insulin ([3]; SZ95-SF sebocytes): significantly inhibited
- inhibition of unsaturated fatty acid production in SZ95-SF in comparison to SZ95-S sebocytes [3]: relatively more robust
- up-regulation of lipidogenic genes (SREBP-1, FAS, FADS-2, SCD-1 mRNA) observed with insulin alone ([5]; 0.1 μM insulin and 1 mM NAC-GED0507, 24 hours): significantly inhibited
- DGAT1 mRNA levels (decreased by insulin) ([5]; SZ95-SF cells, 0.1 μM insulin): countered the effects of insulin exposure
- insulin-stimulated FADS2 mRNA expression [5, 9]: reduced the effect
- insulin-stimulated SCD1 mRNA expression [5, 9]: reduced the effect
- insulin-stimulated SREBP1 mRNA expression [5, 9]: reduced the effect
- cell viability [6]: No significant changes
- metabolic activity [6]: No significant changes
- insulin-induced pAkt [7]: significant decrease
- insulin-induced pS6 [7]: significant decrease
- IL-6 cytokine release [8]: significantly reduced
